{"source": "patent US9469652B2", "about": "“ERK inhibitors” (Eli Lilly and Company, priority 2014, dated 2016)", "key": {"[1]": {"test_system": "RSK1 phosphorylation in HCT116 tumor xenograft", "assay": "In Vivo Target Inhibition (IVTI) Assay (pRSK1 ELISA Assay)", "design": "species or system female athymic nude mice", "conditions": "oral dosing", "protocol": "The purpose of this assay is to measure the ability of a test compound to inhibit ERK1/2 substrate phosphorylation in an animal model Implant female athymic nude mice (22-25 g) from Harlan Laboratories with 5×10e^6 HCT116 colorectal cancer cells (ATCC, #CCL-247) subcutaneously in the right flank region in 200 μL of 1:1 Hank's Balanced Salt Solution (HBSS)+Matrigel solution. Measure tumor growth and body weight twice per week beginning the seventh day after the implantation. When tumor sizes reach 300-500 mm^3, randomize animals and group into groups of five animals. […]\nPulverize tumors in liquid nitrogen and lyse in 1× lysis buffer (MSD, #R60TX-3) containing 1× halt protease & phosphatase inhibitor cocktail (Thermo Scientific, #0861281), 1 mM phenylmethanesulfonyl fluoride (PMSF) (Sigma, #93482-50ML-F) and 1 μM sodium metavanadate (Sigma, #590088) using Matrix D beads (MP Biomedical, #6913-500) in a FastPrep-24™ Cell Disrupter machine (MP Biomedical) in a cold room (4° C.). […] Cool plate to room temperature and measure the absorbance at or near 562 nm on a plate reader (Envision plate reader from Perkin Elmer). Subtract the average 562 nm absorbance measurement of the blank standard replicates from the 562 nm measurements of all other individual standard and unknown (cell or tumor lysate) sample replicates. […]"}, "[2]": {"test_system": "human colorectal cancer cells HCT116", "assay": "Xenograft tumor model HCT116", "format": "in vivo, female athymic nude mice", "conditions": "oral gavage; for Delta T/C % or Regr %: negative = regression", "protocol": "The purpose of this assay is to measure reduction in tumor volume in response to test compound administration. Expand human colorectal cancer cells HCT116 (ATCC, # CCL-247) in culture, harvest and inject 5×10e^6 cells in 200 μL of 1:1 HBSS+matrigel solution subcutaneously on to the rear right flank of female athymic nude mice (22-25 g, Harlan Laboratories). Expand human pancreatic cancer cells MIA PACA-2 (ATCC, # CRL-1420) or human non-small cell lung cancer cells CALU-6 (ATCC, #HTB-56) or human colorectal cancer cells COLO-205 (ATCC, #CCL-222) in culture, harvest and inject 5×10e^6 cells in 200 μL of 1:1 HBSS+matrigel solution subcutaneously on to the rear right flank of female athymic nude mice (22-25 g, Harlan Laboratories). Measure tumor growth and body weight twice per week beginning the seventh day after the implantation. When tumor sizes reach 200-400 mm^3, randomize animals and group into groups of eight to ten animals. Prepare test compound in an appropriate vehicle (vehicle: 1% HEC/0.25% Tween 80/0.05% Antifoam) and administer by oral gavage for 14 to 21 days. Tumor response is determined by tumor volume measurement performed twice a week during the course of treatment. Body weight is taken as a general measure of toxicity.\nA compound within the scope of invention is tested in this assay run substantially as above."}}}
{"smiles": "Cn1nccc1Nc1nccc(-c2cc3c(s2)C(C)(C)N(CCN2CCOCC2)C3=O)n1", "note": "[Example 1, 6,6-Dimethyl-2-{2-[(1-methyl-1H-pyrazol-5-yl)amino]pyrimidin-4-yl}-5-[2-(morpholin-4-yl)ethyl]-5,6-dihydro-4H-thieno[2,3-c]pyrrol-4-one]", "values": [{"measurement": "TED50, pRSK1 inhibition in tumor", "setting": "[1]", "result": 16, "unit": "mg/kg"}, {"measurement": "TGI %", "setting": "[2]; 25 mg/kg QD", "result": 108, "unit": "%"}, {"measurement": "Delta T/C % or Regr %", "setting": "[2]; 25 mg/kg QD", "result": "−8", "unit": "%"}, {"measurement": "TGI %", "setting": "[2]; 50 mg/kg QD", "result": 89, "unit": "%"}, {"measurement": "Delta T/C % or Regr %", "setting": "[2]; 50 mg/kg QD", "result": 11, "unit": "%"}, {"measurement": "TGI %", "setting": "[2]; 100 mg/kg QD", "result": 125, "unit": "%"}, {"measurement": "Delta T/C % or Regr %", "setting": "[2]; 100 mg/kg QD", "result": "−25", "unit": "%"}]}
